Laboratory results published in ChEMBL document CHEMBL3585326, “Discovery of potent carbonic anhydrase and acetylcholine esterase inhibitors: novel sulfamoylcarbamates and sulfamides derived from acetophenones” (Bioorg Med Chem, 2015).

Target: Acetylcholinesterase (Homo sapiens, UniProt P22303)
Sequence (P22303 whole entry): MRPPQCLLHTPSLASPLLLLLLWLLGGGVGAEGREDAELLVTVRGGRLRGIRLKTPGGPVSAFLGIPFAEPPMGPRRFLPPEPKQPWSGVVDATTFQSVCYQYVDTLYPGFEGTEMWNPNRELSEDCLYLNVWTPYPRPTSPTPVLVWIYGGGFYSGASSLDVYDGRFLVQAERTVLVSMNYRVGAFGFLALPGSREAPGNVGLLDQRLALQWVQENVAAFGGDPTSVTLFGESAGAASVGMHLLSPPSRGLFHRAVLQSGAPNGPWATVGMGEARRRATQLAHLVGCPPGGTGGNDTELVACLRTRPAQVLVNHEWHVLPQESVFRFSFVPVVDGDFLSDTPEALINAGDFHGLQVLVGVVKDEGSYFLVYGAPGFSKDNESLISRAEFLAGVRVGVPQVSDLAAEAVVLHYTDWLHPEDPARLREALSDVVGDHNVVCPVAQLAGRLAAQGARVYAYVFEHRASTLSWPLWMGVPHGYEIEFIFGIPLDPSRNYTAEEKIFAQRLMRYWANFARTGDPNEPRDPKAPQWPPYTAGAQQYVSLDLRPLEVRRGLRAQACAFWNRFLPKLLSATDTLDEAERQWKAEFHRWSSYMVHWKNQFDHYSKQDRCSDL
Description: Inhibition of acetylcholinesterase (unknown origin) assessed as AChI hydrolysis using AChI and DTNB as substrate by Ellman's method

SMILES	IC50	Ki
COc1ccccc1C(C)NS(=O)(=O)NC(=O)OCc1ccccc1 (stereo not given)	0.0269 nM	0.0056 nM
COc1ccc(C(C)NS(=O)(=O)NC(=O)OCc2ccccc2)cc1 (stereo not given)	0.0269 nM	0.0045 nM
COc1ccc(C(C)NS(=O)(=O)NC(=O)OCc2ccccc2)cc1OC (stereo not given)	0.0269 nM	0.0051 nM
COc1ccc(OC)c(C(C)NS(=O)(=O)NC(=O)OCc2ccccc2)c1 (stereo not given)	0.0269 nM	0.0229 nM
COc1cccc(OC)c1C(C)NS(=O)(=O)NC(=O)OCc1ccccc1 (stereo not given)	0.0269 nM	0.0105 nM
COc1ccccc1C(C)NS(N)(=O)=O (stereo not given)	0.0269 nM	0.0382 nM
COc1ccc(C(C)NS(N)(=O)=O)cc1 (stereo not given)	0.0269 nM	0.0063 nM
COc1ccc(C(C)NS(N)(=O)=O)cc1OC (stereo not given)	0.0269 nM	0.0049 nM
COc1ccc(OC)c(C(C)NS(N)(=O)=O)c1 (stereo not given)	0.0269 nM	0.0056 nM
COc1cccc(OC)c1C(C)NS(N)(=O)=O (stereo not given)	0.0269 nM	0.0081 nM
